Here are results for ten compounds from ChEMBL document CHEMBL1201862, “PubChem BioAssay data set” (2004).

Some test systems named below: MCF7; HCT-116; TK-10; IGROV-1; SN12C; NCI-H226; OVCAR-4; Malme-3M; OVCAR-5; HT-29; UACC-257; SF-295; Hs-578T; HL-60; HOP-92; OVCAR-8; OVCAR-3; NCI/ADR-RES; SK-MEL-28.
What all share (assay): growth of human tumour cells (NCI), 48 h

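1) Cells in 96-well plates. 2) Compound, 48 h, 5 concentrations. 3) Linear interpolation between surrounding doses. 4) Unreached endpoint = highest concentration. GI50 is the concentration that inhibits growth by half.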 The source made the active and inactive calls. No stated cut-off is given here; in the data, active = GI50 up to about 1.1 µM and inactive = higher.

As for `O=[N+]([O-])c1ccc2ncccc2c1CCc1c([N+](=O)[O-])ccc2ncccc12`, the GI50 in the assay with MCF7, in the assay on HCT-116, with TK-10, in the assay on IGROV-1, with SN12C and with NCI-H226 was > 100 µM (inactive) each time. The GI50 in the assay with OVCAR-4, in the assay with Malme-3M, with OVCAR-5, in the assay on HT-29, with UACC-257 and with SF-295 was > 100 µM (inactive) in each case. In addition, the GI50 is > 100 µM (inactive) with Hs-578T; > 100 µM (inactive) with HL-60; > 35.3 µM (inactive) in the assay on HOP-92; > 100 µM (inactive) in the assay on OVCAR-8; > 100 µM (inactive) in the assay on OVCAR-3; > 100 µM (inactive) in the assay on NCI/ADR-RES. Moreover, in the assay on SK-MEL-28, the GI50 is > 100 µM (inactive).
As for `O=C(O)/C(=C\c1ccccc1)Cc1ccccc1`, the GI50 with MCF7, in the assay on HCT-116, with TK-10, in the assay on IGROV-1, with SN12C and in the assay on NCI-H226 was > 100 µM (inactive) each time. Further, the GI50 with OVCAR-4, with Malme-3M, with OVCAR-5, with HT-29, in the assay on UACC-257 and in the assay with SF-295 was > 100 µM (inactive) each time. The GI50 in the assay on Hs-578T, with HL-60, in the assay with HOP-92, with OVCAR-8, in the assay with OVCAR-3 and with NCI/ADR-RES was > 100 µM (inactive) throughout. Moreover, in the assay on SK-MEL-28, the GI50 is > 100 µM (inactive).
`CC(C)c1ccc(/C(C(=O)O)=C(\O)C(=O)O)cc1`: the GI50 with MCF7, with HCT-116, in the assay on TK-10, with IGROV-1, in the assay on SN12C and in the assay with NCI-H226 was > 100 µM (inactive) throughout. The GI50 with OVCAR-4, with Malme-3M, with OVCAR-5, in the assay on HT-29, in the assay on UACC-257 and in the assay on SF-295 was > 100 µM (inactive) throughout. The GI50 in the assay on Hs-578T, in the assay on HL-60, in the assay with HOP-92, in the assay with OVCAR-8, in the assay on OVCAR-3 and with NCI/ADR-RES was > 100 µM (inactive) throughout. Also, in the assay on SK-MEL-28, the GI50 is > 100 µM (inactive).
For the compound `C=CCN(CCNS(=O)(=O)c1ccc(C)cc1)S(=O)(=O)c1ccc(C)cc1`, the GI50 in the assay on MCF7 was > 51.9 µM (inactive); with HCT-116, 34.2 µM (inactive); in the assay with TK-10 it was > 55.2 µM (inactive); with IGROV-1, 76.2 µM (inactive); in the assay on SN12C, > 72.6 µM (inactive); in the assay with NCI-H226, > 71.3 µM (inactive). Besides, the GI50 in the assay on OVCAR-4 was 12.2 µM (inactive); with Malme-3M it was 36.1 µM (inactive); in the assay on OVCAR-5 it was 58.2 µM (inactive); in the assay on HT-29 it was 9.77 µM (inactive); in the assay with UACC-257, 8.02 µM (inactive); with SF-295 it was 14 µM (inactive). The GI50 in the assay with Hs-578T is > 52.4 µM (inactive); in the assay with HL-60, 21.9 µM (inactive); in the assay with HOP-92 it was > 69.3 µM (inactive); with OVCAR-8, 17.3 µM (inactive); with OVCAR-3, 19 µM (inactive); in the assay on NCI/ADR-RES it was > 60.5 µM (inactive). Also, in the assay with SK-MEL-28, the GI50 was > 91.4 µM (inactive).
Take `COC(=O)C(Cc1ccc(Oc2cc(CC(NC(=O)c3ccccc3)C(=O)OC)ccc2OC)cc1)NC(=O)c1ccccc1` (stereo not given): the GI50 is 16.6 µM (inactive) in the assay with MCF7; 30.3 µM (inactive) with HCT-116; 7.53 µM (inactive) in the assay with TK-10; 6.3 µM (inactive) in the assay with IGROV-1; 6.64 µM (inactive) in the assay with SN12C; 27.5 µM (inactive) in the assay on NCI-H226. Further, the GI50 in the assay on OVCAR-4 was 26.4 µM (inactive); with Malme-3M, 15.2 µM (inactive); in the assay on OVCAR-5 it was > 100 µM (inactive); in the assay with HT-29 it was 26.6 µM (inactive); in the assay with UACC-257 it was 7.35 µM (inactive); in the assay on SF-295 it was > 77.6 µM (inactive). Besides, the GI50 with Hs-578T is 23 µM (inactive); in the assay on HL-60, 3.82 µM (inactive); in the assay with HOP-92, 21.6 µM (inactive); with OVCAR-8, 10.7 µM (inactive); in the assay with OVCAR-3 it was 24.7 µM (inactive); with NCI/ADR-RES, 35.2 µM (inactive). Moreover, the GI50 with SK-MEL-28 is 8.49 µM (inactive).
As to `Cc1ccc(C(=O)/C=C(O)/C(O)=C/C(=O)c2ccc(C)cc2C)c(C)c1`, the GI50 is 2.02 µM (inactive) in the assay with MCF7; 2.32 µM (inactive) in the assay with HCT-116; 1.8 µM (inactive) with TK-10; 1.98 µM (inactive) in the assay with IGROV-1; 2.1 µM (inactive) with SN12C; 2.04 µM (inactive) in the assay on NCI-H226. Also, the GI50 with OVCAR-4 was 2.7 µM (inactive); in the assay on Malme-3M it was 1.86 µM (inactive); with OVCAR-5, 2.06 µM (inactive); in the assay on HT-29 it was 2.48 µM (inactive); in the assay with UACC-257 it was 1.71 µM (inactive); in the assay on SF-295 it was 1.75 µM (inactive). Moreover, the GI50 in the assay on Hs-578T was 2.21 µM (inactive); in the assay on HL-60 it was 0.0641 µM (active); in the assay with HOP-92, 2.9 µM (inactive); in the assay with OVCAR-8, 2.86 µM (inactive); in the assay on OVCAR-3, 1.76 µM (inactive); in the assay with NCI/ADR-RES, 1.92 µM (inactive). Moreover, the GI50 in the assay with SK-MEL-28 was 1.86 µM (inactive).
On to `CC1(C)CCCCCC(O)C(O)CCC(C)(C)C1=O` (stereo not given), for which the GI50 with MCF7, in the assay on HCT-116, with TK-10, with IGROV-1, in the assay with SN12C and in the assay with NCI-H226 was > 100 µM (inactive) throughout. The GI50 in the assay on OVCAR-4, with Malme-3M, in the assay with OVCAR-5, in the assay on HT-29, in the assay with UACC-257 and in the assay on SF-295 was > 100 µM (inactive) throughout. Moreover, the GI50 with Hs-578T, in the assay with HL-60, with HOP-92, in the assay with OVCAR-8, in the assay on OVCAR-3 and with NCI/ADR-RES was > 100 µM (inactive) each time. Further, in the assay with SK-MEL-28, the GI50 was > 100 µM (inactive).
For `O=C(CCc1ccccc1)On1c(-c2ccccc2)nc2ccccc2c1=S`, the GI50 is 4.54 µM (inactive) with MCF7; 2.01 µM (inactive) with HCT-116; 18.9 µM (inactive) in the assay on TK-10; 0.515 µM (active) in the assay with IGROV-1; 11.9 µM (inactive) in the assay on SN12C; 5.62 µM (inactive) in the assay with NCI-H226. The GI50 in the assay with OVCAR-4 was 2.9 µM (inactive); with Malme-3M it was 3.61 µM (inactive); with OVCAR-5, 18.9 µM (inactive); with HT-29, 3.85 µM (inactive); in the assay on UACC-257, 22.9 µM (inactive); with SF-295, 3.99 µM (inactive). Besides, the GI50 is 13.1 µM (inactive) in the assay with Hs-578T; 3.05 µM (inactive) with HL-60; 42.7 µM (inactive) with HOP-92; 4.44 µM (inactive) with OVCAR-8; 4.99 µM (inactive) in the assay on OVCAR-3; 4.08 µM (inactive) in the assay on NCI/ADR-RES. Further, the GI50 in the assay on SK-MEL-28 is 16.1 µM (inactive).
Regarding `O=C(NCCc1ccccn1)c1ccc2cc(C(=O)N3CC(CCl)c4ccc([N+](=O)[O-])cc43)[nH]c2c1` (stereo not given), the GI50 with MCF7 is > 67.9 µM (inactive); in the assay on HCT-116 it was > 70.3 µM (inactive); in the assay on TK-10, 20.7 µM (inactive); in the assay with IGROV-1, 53.6 µM (inactive); in the assay with SN12C, > 65 µM (inactive); in the assay with NCI-H226, > 58.9 µM (inactive). The GI50 in the assay on OVCAR-4 is 4.31 µM (inactive); in the assay on Malme-3M it was 10.9 µM (inactive); with OVCAR-5 it was 97.9 µM (inactive); in the assay on HT-29, > 100 µM (inactive); in the assay on UACC-257, > 46.3 µM (inactive); with SF-295 it was > 35.3 µM (inactive). Also, the GI50 in the assay on Hs-578T was 94.6 µM (inactive); with HL-60, > 100 µM (inactive); in the assay on HOP-92, 9.46 µM (inactive); with OVCAR-8, 9.12 µM (inactive); in the assay on OVCAR-3, 5.52 µM (inactive); in the assay on NCI/ADR-RES it was 26.1 µM (inactive). Besides, the GI50 with SK-MEL-28 was > 100 µM (inactive).
Turning to `COC(=O)C1=COC2OC3C(C(C)O)C(=O)OC34C=CC1C24` (stereo not given), the GI50 with MCF7 was 40.1 µM (inactive); with HCT-116, 47.5 µM (inactive); in the assay with TK-10, 61.2 µM (inactive); in the assay on IGROV-1 it was 71.6 µM (inactive); with SN12C, 50.1 µM (inactive); in the assay on NCI-H226, > 100 µM (inactive). Also, the GI50 with OVCAR-4 is > 100 µM (inactive); with Malme-3M, 36.6 µM (inactive); in the assay on OVCAR-5 it was 51.9 µM (inactive); with HT-29, 44 µM (inactive); with UACC-257, > 100 µM (inactive); in the assay on SF-295, 56.6 µM (inactive). In addition, the GI50 was 34 µM (inactive) in the assay with Hs-578T; 15.5 µM (inactive) in the assay on HL-60; 55.7 µM (inactive) with HOP-92; 20.9 µM (inactive) with OVCAR-8; 29.5 µM (inactive) with OVCAR-3; 25 µM (inactive) in the assay on NCI/ADR-RES. Besides, the GI50 in the assay with SK-MEL-28 was 31 µM (inactive).
